Assay results: patent US7888523B2, “Preparation of platinum(II) complexes” (Platco Technologies (Proprietary) Limited, priority 2004, dated 2011)

Assays:
colon cancer cells = assay: Anticancer testing, inhibition of colon cancer cells; format: cell-based; settings: for inhibition on colon cells: medium containing 10 mM glutathione
Procedure: (§1) Anticancer testing on the halogenoplatinum(II) complex of Example 8 was performed and compared with cisplatin. […] The corresponding values for cisplatin are 85.6% and 93.2%. The corresponding data on cervical cancer cells are 88.5 and 95.9% at 10 and 100 μM solutions. The corresponding values for cisplatin are 85.4 and 95% respectively. A further study in which 100 μM solutions were used in a medium containing 10 mM glutathione, the halogenoplatinum(II) complex performed even better, viz.

cervical cancer cells = assay: Anticancer testing, inhibition of cervical cancer cells; format: cell-based; settings: for inhibition on cervical cancer cells: medium containing 10 mM glutathione
Procedure: as §1

breast cancer cells = assay: Anticancer testing, inhibition of breast cancer cells; format: cell-based; settings: 100 μM solution, medium containing 10 mM glutathione
Procedure: as §1

[1] = Anti-cancer properties (test not specified); settings: statement in words, no test details

SMILES	percentage inhibition on colon cancer cells (colon cancer cells; 10 μM solution) [%]	percentage inhibition on colon cancer cells (colon cancer cells; 100 μM solution) [%]	inhibition on colon cells (colon cancer cells; 100 μM solution) [%]	percentage inhibition on cervical cancer cells (cervical cancer cells; 10 μM solution) [%]	percentage inhibition on cervical cancer cells (cervical cancer cells; 100 μM solution) [%]	inhibition on cervical cancer cells (cervical cancer cells; 100 μM solution) [%]	inhibition on breast cancer cells (breast cancer cells) [%]	anti-cancer properties [1]
CSCc1nccn1C.[Cl][Pt][Cl] [Pt(mmtei)Cl2, bis-chloro-(1-methyl-2-methylthiomethyl-imidazole)platinum(II)]	92.8	97.0	98.2	88.5	95.9	99.3	66.1	exceptional anti-cancer properties
N.N.[Cl][Pt][Cl] [cisplatin, reference compound]	85.6	93.2	48.0		95	58.6	14	
